Like-named read-outs stand apart in the source and are kept apart here.
What was measured:
[1] = target: T1, hH1 sodium channel (Homo sapiens, UniProt Q14524); experiment: Inactivated state inhibition of hH1 sodium channel current (prepulse protocol); assay type: cell-based
T1 construct: expressed in transfected cells; host or cells: HEK293

[2] = tested on: isolated rabbit Purkinje fibers; settings: 100 μM
[3] = target: human heart sodium channels (hH1) (Homo sapiens, UniProt Q14524); assay type: cell-based
Sequence of human heart sodium channels (hH1) (Q14524 whole entry, looked up): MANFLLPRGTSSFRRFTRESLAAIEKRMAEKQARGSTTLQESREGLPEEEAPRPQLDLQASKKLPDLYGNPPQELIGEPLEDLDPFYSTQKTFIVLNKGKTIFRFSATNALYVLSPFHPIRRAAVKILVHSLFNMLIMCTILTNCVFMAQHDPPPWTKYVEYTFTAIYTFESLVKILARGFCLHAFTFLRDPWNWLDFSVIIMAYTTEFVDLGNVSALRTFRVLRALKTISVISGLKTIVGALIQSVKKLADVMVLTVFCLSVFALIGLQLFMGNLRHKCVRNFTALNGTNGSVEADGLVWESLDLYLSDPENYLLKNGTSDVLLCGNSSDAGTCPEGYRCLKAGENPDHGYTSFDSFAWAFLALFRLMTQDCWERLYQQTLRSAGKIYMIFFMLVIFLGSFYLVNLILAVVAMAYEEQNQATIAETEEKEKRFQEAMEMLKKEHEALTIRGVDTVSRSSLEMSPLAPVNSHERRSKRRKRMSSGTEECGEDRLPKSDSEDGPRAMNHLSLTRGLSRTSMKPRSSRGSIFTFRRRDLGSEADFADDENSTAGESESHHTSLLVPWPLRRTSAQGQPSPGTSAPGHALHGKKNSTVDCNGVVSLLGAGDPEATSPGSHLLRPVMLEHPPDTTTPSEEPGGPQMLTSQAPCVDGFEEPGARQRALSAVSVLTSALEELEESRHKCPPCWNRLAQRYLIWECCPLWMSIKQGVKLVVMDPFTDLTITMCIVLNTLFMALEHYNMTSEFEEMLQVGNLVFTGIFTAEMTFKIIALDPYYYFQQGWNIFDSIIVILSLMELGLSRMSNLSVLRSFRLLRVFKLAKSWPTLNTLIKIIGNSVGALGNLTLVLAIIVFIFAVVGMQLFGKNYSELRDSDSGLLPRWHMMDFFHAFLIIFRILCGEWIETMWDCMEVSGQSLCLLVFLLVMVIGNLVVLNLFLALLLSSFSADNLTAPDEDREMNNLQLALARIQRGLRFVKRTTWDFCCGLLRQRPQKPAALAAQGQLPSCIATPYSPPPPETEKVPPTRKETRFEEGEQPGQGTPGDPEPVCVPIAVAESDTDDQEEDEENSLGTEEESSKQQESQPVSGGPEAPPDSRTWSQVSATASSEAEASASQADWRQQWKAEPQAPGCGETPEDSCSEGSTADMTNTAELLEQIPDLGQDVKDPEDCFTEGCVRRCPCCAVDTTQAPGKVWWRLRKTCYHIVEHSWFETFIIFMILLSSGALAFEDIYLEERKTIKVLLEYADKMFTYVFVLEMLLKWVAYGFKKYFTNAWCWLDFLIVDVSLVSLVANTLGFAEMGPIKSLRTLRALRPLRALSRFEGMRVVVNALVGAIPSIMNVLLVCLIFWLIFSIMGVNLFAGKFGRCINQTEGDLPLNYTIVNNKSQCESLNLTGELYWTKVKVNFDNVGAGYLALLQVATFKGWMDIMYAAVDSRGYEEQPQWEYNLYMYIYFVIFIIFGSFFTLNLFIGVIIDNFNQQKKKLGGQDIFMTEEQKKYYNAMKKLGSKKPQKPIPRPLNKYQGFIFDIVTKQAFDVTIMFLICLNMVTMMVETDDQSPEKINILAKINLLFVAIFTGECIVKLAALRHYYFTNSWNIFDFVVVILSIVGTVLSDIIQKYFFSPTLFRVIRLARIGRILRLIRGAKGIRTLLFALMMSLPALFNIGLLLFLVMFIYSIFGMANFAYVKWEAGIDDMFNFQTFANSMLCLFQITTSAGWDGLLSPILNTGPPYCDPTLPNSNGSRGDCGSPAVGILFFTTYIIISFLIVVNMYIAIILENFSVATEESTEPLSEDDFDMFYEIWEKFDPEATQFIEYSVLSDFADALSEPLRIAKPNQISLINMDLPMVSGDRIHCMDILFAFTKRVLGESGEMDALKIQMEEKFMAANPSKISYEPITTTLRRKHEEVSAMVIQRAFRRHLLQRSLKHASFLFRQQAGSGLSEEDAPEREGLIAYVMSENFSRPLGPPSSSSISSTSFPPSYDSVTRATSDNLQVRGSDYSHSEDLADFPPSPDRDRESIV

[4] = assay type: in vivo, rabbit
Method: Briefly, continuous infusion of COMPOUND A was administered prior to continuous infusion of methoxamine and followed by clofilium. The incidence of TdP (the number of animals in which TdP occurred) was compared to experiments in which COMPOUND A was not infused.
The following procedure was used: (1) Female NZW rabbits were weighed and anaesthetised initially with 35 mg/kg sodium pentobarbital via ear vein (60 mg/mL) using a sterile 23G 3/4 needle. Additional doses (in increments of 0.2-0.3 mL) were used if required to attain and maintain sufficient anaesthesia as determined by abolishment of eyelid reflex. Care was taken not to over anaesthetize as this could cause respiratory and cardiac arrest. (2) The anaesthetised rabbit was placed on a rabbit restraining board in the supine position and limbs were tied down. (3) The fur in the neck and inguinal region were wetted with water and trimmed down to the skin with scissors to facilitate dissection. Fur was placed in a water-filled beaker to prevent fur from becoming airborne. (4) The left or right femoral artery was cannulated with PE 50 tubing and attached to a pressure transducer to monitor blood pressure. (5) The right and left jugular veins were cannulated using PE-90 tubing for drug delivery via an infusion pump. (6) The left or right femoral vein was cannulated using PE-50 tubing for drug delivery via an infusion pump. (7) ECG leads were attached as follows: the ground lead was inserted subcutaneously into the femoral vein region; one lead was inserted subcutaneously near the apex of the heart and the third lead was placed in the open surgical area near the right jugular vein. (8) Control recordings of ECG and blood pressure were taken for 5 minutes to observe pre-drug effects. Recordings were continued throughout the entire experiment. (9) Arterial K^+ concentration was measured with the hand-held I-STAT blood-gas analyzer prior to infusion of arrhythmogenic agent and at the end of the experiment. […] Infusion was continued throughout the experiment. (11) After a further 5 minutes, methoxamine was administered at 20 μg/kg/min via the femoral vein. Methoxamine infusion was also continued throughout the experiment. (12) 10 minutes following the start of methoxamine infusion, clofilium was infused via a jugular vein. (13) In COMPOUND A-pretreated animals and controls, recording continued for 15 minutes regardless of whether TdP is seen or not. (14) A blood sample was collected when the experimental endpoint was reached, immediately after the infusion pumps were stopped.
COMPOUND A was applied and examined as described. To analyze the data, the parameters measured are (1) incidence of TdP (2) duration of TdP episodes (3) arterial K^+ concentration, (4) PR, QRS and QTc intervals during normal sinus rhythm (until arrhythmias begin and determination is no longer possible), (5) BP, and (6) HR.

[5] = tested on: rabbit Purkinje fibers; settings: cited from earlier work
[6] = tested on: rabbit Purkinje fibers; experiment: Action potential duration in rabbit Purkinje fibers; assay type: cell-based; settings: n=10
Method: A midline thoracotomy was performed and the heart was excised as practised by those skilled in the art. […] The heart was perfused with standard bicarbonate buffered Krebs' solution known to those skilled in the art. An electrode was pulled from thin-walled filamented borosilicate glass capillary tubes having a resistance of 10 to 30 megaohms when filled with 3 M KCl. The electrode was attached to headstage mounted on an Axoclamp 2A amplifier (or a similar amplifier known to those skilled in the art). The microelectrode was brought down upon an exposed Purkinje fiber using a micromanipulator and the position was adjusted until the electrode penetrated a single Purkinje cell. The Purkinje fiber network was stimulated using a biphasic stimulation pulse and subsequent action potentials were recorded for analysis.

[7] = methoxamine plus clofilium, no pretreatment
[8] = 300 nM dofetilide in the presence of DMSO

T1 sequence (Q14524 whole entry): as the sequence (Q14524 whole entry, looked up) above

CCN(CC)CC(=O)Nc1c(C)cccc1C [lidocaine]
hH1 inhibition with longer prepulses (inactivated state inhibition) [1]: enhanced inhibition | termination of EADs induced by 300 nM dofetilide [2]: terminated | block of TTX-sensitive early current Iearly(TTX) [3]: 41±2.7% | block of TTX-sensitive late current Ilate(TTX) [3]: 73±2.8% | block of TTX-sensitive sustained current Isus(TTX) [3]: 70±2.5%

NC1=N[C@H](O)[C@H]2[C@H]3O[C@]4(O)O[C@@H]([C@@H](O)[C@@]2(N1)[C@@H]4O)[C@]3(O)CO [TTX, tetrodotoxin]
block of unsubtracted Iearly [3]: completely

CCCCCCC[N+](CC)(CC)CCCCc1ccc(Cl)cc1 [clofilium]
TdP incidence (animals) ([4]; methoxamine 20 μg/kg/min plus clofilium 300 nmol/kg/min, no pretreatment): 7 of 9 | increase in QTc interval 2.5 minutes after starting clofilium ([4]; methoxamine and clofilium without any pretreatment): 20±11% | cumulative dose of clofilium at TdP [4, 7]: 1.4 ± 0.2 mg/kg | time to TdP after starting clofilium infusion [4, 7]: 7.0 ± 1.3 min | time to first PVC after starting clofilium infusion [4, 7]: 3.3 ± 0.5 min

C=C[C@H]1C[N@@]2CC[C@H]1C[C@@H]2[C@@H](O)c1ccnc2ccc(OC)cc12 [quinidine]
increase of APD90 ([5]; 10 μM): 93%

CN(CCOc1ccc(NS(C)(=O)=O)cc1)CCc1ccc(NS(C)(=O)=O)cc1 [dofetilide]
increase in APD90 [6, 8]: 92% | percentage increase in APD50 [6, 8]: 86% | Vmax ([6]; dofetilide and DMSO): 253±48 V/s | increase of APD90 ([5]; 10 nM, BCL=1000 ms): 83%

Reference: patent US20050070552A1, “Ion channel modulating activity I” (Cardiome Pharma Corp., priority 2003, published 2005)
